Like-named read-outs stand apart in the source and are kept apart here.
Experiments:
[1] = Henry's Law constant H of solvent in water; assay type: physicochemical; conditions: for Henry's Law constant, H: Table I; for Value of H: Table II
Description: In a first or single stage, the incoming gas contains no solvent, yo is 0 and Em = y/y*. y is determined by analyzing a sample of the off-gas and y* can be calculated from the total vapor pressure P, the mole fraction (x) of the solvent in the liquid leaving the stage and H, the Henry's Law constant. That is, y*P (the partial pressure of the solvent) is equal to Hx, or y* = Hx/P.
For an aqueous solution of a sparingly soluble chlorinated hydrocarbon (for which Henry's law holds reasonably well over the full range of solubility up to saturation), H can be determined from the solvent solubility (c) in water and the vapor pressure (po) of the pure solvent, at a particular temperature; i.e., H = po /C. solubilities, vapor pressures and H values, at 20° C., are given below for three chlorinated hydrocarbon solvents.
The effect on H of operating at temperatures somewhat above or below […] is indicated in the following tabulation: […]

[2] = Air stripping of solvent from water (no fibers), time to strip 90% (Example 4); assay type: physicochemical; conditions: 200 ml water, 5 g solvent, air stripped as in Example 2 (20° C., 2 cubic feet per minute)
Description: In a single tray apparatus similar to that in Example 1, air at 20° C. was passed at a rate of 2 cubic feet per minute through 200 ml. batches of various consistency aqueous Kraft pulps containing initially 1% by volume (2.0 ml, or […]) of dispersed perchloroethylene, C2 Cl4, which is very sparingly soluble in water (150 ppm). After 3 minutes, the residual weight of C2 Cl4 found was:
200 ml. batches of water (no fibers) containing 5 g. of solvent were stripped with air as in Example 2. The time required to strip 90% of the solvent was measured: […]

[3] = cited from earlier work
[4] = cited from earlier work; for Vapor Pressure of pure solvent: 20° C., Table I; for Vapor Pressure at 20° C.: Example 4
[5] = Dissolved solvent found in 0.5% Kraft pulp prepared with solvent-saturated water (Example 5); assay type: physicochemical; conditions: 0.5% consistency Kraft pulp, water previously saturated with perchloroethylene
Description: A 0.5% consistency Kraft pulp suspension was prepared with water previously saturated with perchloroethylene.

CC(Cl)(Cl)Cl [1,1,1-Trichloroethane]
Henry's Law constant, H ([1]; 20° C.): 0.1429 mm Hg/ppm
Time Required to strip out 90% [2]: 32 s
Solubility in water ([3]; 20° C., Table I): 700 ppm
Vapor Pressure of pure solvent [4]: 100 mm Hg
Vapor Pressure at 20° C. [4]: 100 mm Hg

ClCCl [Methylene Chlorine]
Value of H ([1]; 15° C.): 0.0183 mm Hg/ppm
Henry's Law constant, H ([1]; 20° C.): 0.0241 mm Hg/ppm
Value of H ([1]; 20° C.): 0.0241 mm Hg/ppm
Value of H ([1]; 25° C.): 0.0321 mm Hg/ppm
Time Required to strip out 90% [2]: 9 s
Solubility in water ([3]; 20° C., Table I): 13,900 ppm
Vapor Pressure at 20° C. [4]: 340 mm Hg

ClC(Cl)=C(Cl)Cl [Perchloroethylene, perchloroethylene]
Value of H ([1]; 15° C.): 0.0760 mm Hg/ppm
Henry's Law constant, H ([1]; 20° C.): 0.1000 mm Hg/ppm
Value of H ([1]; 20° C.): 0.1000 mm Hg/ppm
Value of H ([1]; 25° C.): 0.1267 mm Hg/ppm
Time Required to strip out 90% [2]: 125 s
dissolved C2 Cl4 content of suspension [5]: 176 ppm
Solubility in water ([3]; 20° C., Table I): 147 ppm
Solubility in water ([3]; Example 2, very sparingly soluble in water): 150 ppm
Vapor Pressure of pure solvent [4]: 14.7 mm Hg
Vapor Pressure at 20° C. [4]: 15 mm Hg
